According to patent US5446060A, “Aminoalkyl thienyl ketone derivatives and their use as peripheral vasodilators” (Laboratoire L. Lafon, priority 1990, dated 1995):
Counter-ions that a name gives are not always drawn. Like-named read-outs stand apart in the source and are kept apart here.

What was measured:
Solubility in water = type: physicochemical; details: for solubility: read-out: solubility in water (concentration)
[1] = Acute toxicity determined orally in mice; details: mouse, in vivo; oral, mice (NMRI)
Method: The acute toxicity was determined orally in mice (NMRI).

femoral flow rate = test: Cardiovascular activity, compounds administered intravenously in anaesthetised dogs (femoral flow rate); type: in vivo; details: intravenous; for increase in femoral flow rate: 4 mg/kg; for minimal effective dose: Canis lupus familiaris, read-out: dose at and above which femoral flow rate is significantly increased
Excerpt: (§1) The activity of the compounds administered intravenously was studied in anaesthetised dogs.

arterial blood pressure = test: Cardiovascular activity, compounds administered intravenously in anaesthetised dogs (arterial blood pressure); type: in vivo; details: intravenous
Excerpt: as §1

[2] = tested on: microcirculation of the chamber of the rabbit's ear; test: Activity with respect to the microcirculation of the chamber of the rabbit's ear; type: in vivo; details: 1 mg/kg I.V.
Excerpt: The activity of the compounds administered intravenously with respect to the microcirculation of the chamber of the rabbit's ear was studied.

ATP in fresh blood = test: Effects on ATP in fresh blood measured ex vivo by 31P NMR spectroscopy
Method: The effects of the compounds on the ATP in fresh blood were measured ex vivo by ^31 p NMR spectroscopy.
The results are given in the table below in the form of percentage changes.

O=C(CCCN1CCCC(CO)C1)c1cccs1 (stereo not drawn) [Example 5, 4-[3-(hydroxymethyl)piperidino]-1-(2-thienyl) butanone hydrochloride]
solubility in water (in words) (Solubility in water): water-soluble

O=C(CCCN1CCCC1)c1ccsc1 [Example 8, 4-pyrrolidino-1-(3-thienyl)butanone hydrochloride]
solubility in water (in words) (Solubility in water): water-soluble

O=C(CCCN1CCCC1)c1cccs1 [Example 1, 4-pyrrolidino-l-(2-thienyl)butanone hydrochloride]
LD50 [1]: 121 ± 10 mg/kg
increase in femoral flow rate (femoral flow rate): 170%
minimal effective dose (femoral flow rate): ≥ 1 mg/kg
change in arterial blood pressure (arterial blood pressure; even at 4 mg/kg): no significant change
increase in non-terminal arteriolar diameter [2]: significant and long-lasting increase
percentage change in αATP (ATP in fresh blood): +41.4%
percentage change in βATP (ATP in fresh blood): +31.2%
percentage change in γATP (ATP in fresh blood): +36.7%
solubility (Solubility in water): 200 mg/mL

O=C(CCCN1CCCCC1)c1cccs1 [Example 12, 4-piperidino-1-(2-thienyl)butanone 2,4,6-trimethoxybenzoate]
solubility in water (in words) (Solubility in water): soluble in water on heating

O=C(CCCN1CCCCC1)c1cccs1 [Example 2, 4-piperidino-l-(2-thienyl)butanone hydrochloride]
LD50 [1]: 235 ± 35 mg/kg
increase in femoral flow rate compared with buflomedil at 4 mg/kg (femoral flow rate; 2 mg/kg): same intensity as buflomedil at a dose of 4 mg/kg
minimal effective dose (femoral flow rate): ≥ 1 mg/kg
duration of effect on femoral flow rate compared with buflomedil (femoral flow rate): longer-lasting than that of buflomedil
change in arterial blood pressure (arterial blood pressure; 2 mg/kg): without modifying arterial blood pressure
solubility in water (in words) (Solubility in water; hydrochloride): water-soluble

O=C(CCCn1ccnc1)c1cccs1 [Example 6, 4-(1-imidazolyl)-1-(2-thienyl)butanone hydrochloride]
solubility in water (in words) (Solubility in water): water-soluble

O=C(CCCN1CCCCCC1)c1ccsc1 [Example 9, 4-hexamethylenimino-1-(3-thienyl)butanone hydrochloride]
solubility in water (in words) (Solubility in water): water-soluble

O=C(CCCN1CCCC1)c1cccs1 [Example 11, 4-pyrrolidino-1-(2-thienyl)butanone 2,4,6-trimethoxybenzoate]
solubility in water (in words) (Solubility in water): soluble in water on heating

O=C(CCCN1CCOCC1)c1cccs1 [Example 4, 4-morpholino-l-(2-thienyl)butanone hydrochloride]
solubility in water (in words) (Solubility in water): water-soluble

CC1CCCN(CCCC(=O)c2cccs2)C1 (stereo not drawn) [Example 3, 4-(3-methylpiperidino)-1-(2-thienyl)butanone hydrochloride]
LD50 [1]: 207 ± 29 mg/kg
percentage change in αATP (ATP in fresh blood): +54.2%
percentage change in βATP (ATP in fresh blood): +54.6%
percentage change in γATP (ATP in fresh blood): +34.7%
solubility (Solubility in water): 200 mg/mL

COc1cc(OC)c(C(=O)CCCN2CCCC2)c(OC)c1 [buflomedil, reference compound]
increase in femoral flow rate (femoral flow rate): 106%
change in ATP level (ATP in fresh blood): did not reveal any change in ATP level

O=C(CCCN1CCCCCC1)c1cccs1 [Example 7, 4-hexamethylenimino-1-(2-thienyl)butanone hydrochloride]
LD50 [1]: 131 ± 15 mg/kg
increase in femoral flow rate (in words) (femoral flow rate; 1.14 mg/kg and above): significant and longlasting increase
minimal effective dose (femoral flow rate): ≥ 1.14 mg/kg
increase in femoral flow rate compared with buflomedil at 4 mg/kg (femoral flow rate; dose of 1.14 mg/kg and above): larger than that observed with buflomedil at a dose of 4 mg/kg
increase in non-terminal arteriolar diameter [2]: significant and long-lasting increase
solubility in water (in words) (Solubility in water): watersoluble

CC1CCCN(CCCC(=O)c2ccsc2)C1 (stereo not drawn) [Example 10, 4-(3-methylpiperidino)-1-(3thienyl)butanone hydrochloride]
solubility in water (in words) (Solubility in water): water-soluble
